Data as given in publication PMC9967275, “Screening the Pathogen Box to Discover and Characterize New Cruzain and TbrCatL Inhibitors” (Pathogens, 2023).
“Also recorded” adds a separate entry of the source. Where two headings read alike, the source gives them in different places.

What was measured:
cruzain [1] = target: T1, cruzain (Trypanosoma cruzi, UniProt P25779); assay: biochemical; settings: for Cruzain 0’ Inhibition: 0’ (pre-incubation time); for Cruzain 10’ Inhibition: 10’ (pre-incubation time)
In short: (§1)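 Recombinant enzymes assayed by Z-Phe-Arg-AMC cleavage at 25 °C, fluorescence 340/440 nm over 5–7 min, with 10 min or no enzyme–compound preincubation.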

TbrCatL = target: T2, TbrCatL (Trypanosoma brucei rhodesiense, UniProt Q95PM0); assay: TbrCatL enzymatic inhibition assay (cleavage of fluorogenic substrate Z-FR-AMC); format: biochemical; settings: for TbrCatL 0’ Inhibition: 0’ (pre-incubation time); for TbrCatL 0’ Inhibition / TbrCatL 10’ Inhibition: sheet "Screening results"; for TbrCatL 10’ Inhibition: 10’ (pre-incubation time)
T2 construct: Conor Caffrey (University of California San Diego)
In short: as §1

cruzain [2] = target: T1, cruzain; assay: Aggregation counter-assays: cruzain inhibition at varying Triton X-100 and after pre-incubation with BSA; format: biochemical; set-up: Cruzain is the truncated, recombinant-expressed cruzipain 1; Brian Shoichet (University of California San Francisco); settings: for % Cruzain Inhibition (Mean ± SEM) 0.001% Triton + BSA 1 mg/mL / % Cruzain Inhibition (Mean ± SEM) 0.001% Triton X-100 / % Cruzain Inhibition (Mean ± SEM) 0.01% Triton X-100 / % Cruzain Inhibition (Mean ± SEM) 0.1% Triton X-100: compound µM: MMV687246 12.5, MMV687812 3.125, MMV688179 1.563, MMV688362 3.125, MMV688466 6.25, MMV690028 25
Method: To assess the effects of the Triton X-100 concentration on cruzain inhibition, assays were performed using 0.001%, 0.01%, and 0.1% Triton X-100. To evaluate the impact of pre-incubation with bovine serum albumin (BSA), 50 µL of a solution of the compound in the assay buffer containing 0.001% of Triton X-100 was incubated with 4 mg/mL of BSA (Sigma-Aldrich) for 10′ in a 96-well plate. Next, 50 µL of a solution containing circa 2 nM of cruzain in the same buffer was added to each well and incubated for another 10′. Finally, 100 µL of a solution of 5 µM Z-FR-AMC in the same buffer was added to each well and the fluorescence was immediately read. The final compound concentration varies and was selected to be near the compound IC50.
To investigate if inhibition was due to colloidal aggregation, a common cause of unspecific enzyme inhibition in in vitro assays, we employed two well-established experiments: the comparison of percentages of inhibition at varying Triton X-100 concentrations and the effect of compound pre-incubation with BSA on the percentage of inhibition. […] Pre-incubating a compound that aggregates with BSA saturates the protein-binding capacity of the aggregate.

cruzain [3] = target: T1, cruzain; assay: Mechanism of inhibition against cruzain (Michaelis-Menten, Lineweaver-Burk); format: biochemical; set-up: Cruzain is the truncated, recombinant-expressed cruzipain 1; Brian Shoichet (University of California San Francisco)
Method: Non-linear regression to Michaelis-Menten models and linear regression for the Lineweaver-Burk plot were performed. Ki was estimated by both methods. The effect of the inhibitor concentration on the Km app was evaluated using the General Linear F-test.

[4] = IC50 (µM ± SEM %) Cruzain 0′, no pre-incubation
[5] = IC50 (µM ± SEM %) Cruzain 10′ inc, 10′ pre-incubation
[6] = read-out: Cruzain 0’ Inhibition, 0’ (pre-incubation time), sheet "Screening results"
[7] = read-out: Cruzain 10’ Inhibition, 10’ (pre-incubation time), sheet "Screening results"
[8] = read-out: Inhibition at 5 µM (Mean ± SEM %) Cruzain 0′, 5 µM, no pre-incubation, initial screening
[9] = read-out: Inhibition at 5 µM (Mean ± SEM %) Cruzain 10′ inc, 5 µM, 10′ pre-incubation, initial screening
[10] = read-out: Inhibition at 100 µM (Mean ± SEM %) Cruzain 0′, 100 µM, no pre-incubation, solid samples
[11] = read-out: Inhibition at 100 µM (Mean ± SEM %) Cruzain 10′ inc, 100 µM, 10′ pre-incubation, solid samples
[12] = read-out: Inhibition of cruzain or TbrCatL (either enzyme) in the initial screening, 5 µM, either cruzain or TbrCatL, with or without pre-incubation
[13] = IC50 (µM ± SEM %) TbrCatL 0′, no pre-incubation
[14] = IC50 (µM ± SEM %) TbrCatL 10′ inc, 10′ pre-incubation
[15] = read-out: Inhibition at 5 µM (Mean ± SEM %) TbrCatL 0′
[16] = read-out: Inhibition at 5 µM (Mean ± SEM %) TbrCatL 10′ inc
[17] = read-out: Inhibition at 100 µM (Mean ± SEM %) TbrCatL 0′
[18] = read-out: Inhibition at 100 µM (Mean ± SEM %) TbrCatL 10′ inc
[19] = read-out: TbrCatL 0’ Inhibition
[20] = read-out: TbrCatL 10’ Inhibition

T1 sequence (P25779 123-337 limits assumed): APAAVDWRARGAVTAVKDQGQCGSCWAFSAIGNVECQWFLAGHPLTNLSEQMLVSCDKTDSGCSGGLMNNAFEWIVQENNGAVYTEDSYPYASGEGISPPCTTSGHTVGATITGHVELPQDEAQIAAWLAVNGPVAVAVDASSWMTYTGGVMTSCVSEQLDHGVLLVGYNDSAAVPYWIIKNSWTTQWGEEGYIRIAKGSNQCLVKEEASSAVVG
T2 sequence (Q95PM0 entry or part of it): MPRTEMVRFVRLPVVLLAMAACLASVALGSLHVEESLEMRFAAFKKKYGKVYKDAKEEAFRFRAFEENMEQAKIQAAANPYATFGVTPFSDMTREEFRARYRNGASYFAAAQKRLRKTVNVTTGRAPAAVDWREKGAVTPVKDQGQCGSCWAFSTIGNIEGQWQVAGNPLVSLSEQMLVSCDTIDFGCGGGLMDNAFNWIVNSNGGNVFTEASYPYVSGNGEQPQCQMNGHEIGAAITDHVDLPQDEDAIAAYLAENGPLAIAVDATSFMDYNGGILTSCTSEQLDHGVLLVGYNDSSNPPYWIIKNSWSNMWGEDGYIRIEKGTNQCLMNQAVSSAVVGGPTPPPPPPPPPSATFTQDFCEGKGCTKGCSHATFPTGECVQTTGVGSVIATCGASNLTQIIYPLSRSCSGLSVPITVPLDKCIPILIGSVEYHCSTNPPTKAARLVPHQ

Compound | IC50 (cruzain [1]; [4]) [µM] | IC50 (cruzain [1]; [5]) [µM] | inhibition at 5 µM (cruzain [1]; [8]) [%] | inhibition at 5 µM (cruzain [1]; [9]) [%] | inhibition at 100 µM (cruzain [1]; [10]) [%] | inhibition at 100 µM (cruzain [1]; [11]) [%] | inhibition at 5 µM (cruzain [1]; [12]) [%] | IC50 (TbrCatL; [13]) [µM] | IC50 (TbrCatL; [14]) [µM] | inhibition at 5 µM (TbrCatL; [15]) [%] | inhibition at 5 µM (TbrCatL; [16]) [%] | inhibition at 100 µM (TbrCatL; [17]) [%] | inhibition at 100 µM (TbrCatL; [18]) [%] | % Cruzain Inhibition (Mean ± SEM) 0.001% Triton + BSA 1 mg/mL (cruzain [2]) [%] | % Cruzain Inhibition (Mean ± SEM) 0.001% Triton X-100 (cruzain [2]) [%] | % Cruzain Inhibition (Mean ± SEM) 0.1% Triton X-100 (cruzain [2]) [%] | Cruzain 0’ Inhibition (cruzain [1]; sheet "Screening results") [%] | Cruzain 10’ Inhibition (cruzain [1]; sheet "Screening results") [%] | TbrCatL 0’ Inhibition (TbrCatL) [%] | TbrCatL 10’ Inhibition (TbrCatL) [%] | also measured
CN1CCN(S(=O)(=O)c2ccc(-c3ccc4c(Nc5ccc6nn[nH]c6c5)ccnc4c3)cc2)CC1 [MMV687246] | 14 ± 5 | 10 ± 2 | 24 ± 3 | 39 ± 3 | 72 ± 1 | 92 ± 3 | ≥ 40 | 9 ± 3 | 4.2 ± 0.6 | 29 ± 1 | 49 ± 4 | 92 ± 6 | 99 ± 1 | 45 ± 1 | 62 ± 3 | 32 ± 2 | – | – | – | – | Change of IC50 with vs without 10′ pre-incubation (cruzain [1]; against cruzain, 10 min): up to 2 fold; inhibition at 5 µM (cruzain [1]; [6]): 24%; inhibition at 5 µM (cruzain [1]; [7]): 39%; inhibition at 5 µM (TbrCatL; [19]): 29%; inhibition at 5 µM (TbrCatL; [20]): 49%; % Cruzain Inhibition (Mean ± SEM) 0.01% Triton X-100 (cruzain [2]): 51 ± 0%; Ki (cruzain [3]): 57 ± 6 µM; Mechanism of inhibition of cruzain (cruzain [3]): mixed inhibitor; also recorded: mixed inhibition; α value (mixed inhibition) (cruzain [3]; mixed model): 0.7 ± 0.2
CN1CCN(CCCOc2ncc(Nc3ncc(-c4ccc(C(F)(F)F)c(F)c4)nc3C(N)=O)cn2)CC1 [MMV687812] | 2.2 ± 0.3 | 2.6 ± 0.03 | 41 ± 2 | 27 | 100 | 95 | ≥ 40 | 3.45 ± 0.05 | 3.6 ± 0.3 | 11 ± 3 | 5 ± 1 | 90 ± 2 | 93 | 85 ± 1 | 92 ± 0 | 54 ± 1 | – | – | – | – | IC50 (cruzain [1]; IC50 against cruzain and TbrCatL (summary), cruzain and TbrCatL, with or without pre-incubation): 2 to 4 µM; inhibition at 5 µM (cruzain [1]; [6]): 42%; inhibition at 5 µM (cruzain [1]; [7]): 27%; inhibition at 5 µM (TbrCatL; [19]): 11%; inhibition at 5 µM (TbrCatL; [20]): 5.3%; Effect of a 10-fold increase in the concentration of Triton X-100 on cruzain inhibition (cruzain [2]; near the IC50): some reduction in the inhibition; Effect of pre-incubation of the compound with BSA on cruzain inhibition (cruzain [2]; near the IC50): did not reduce the inhibition of cruzain
Cn1ccnc1CNCCS(=O)(=O)c1cccc(Nc2ccc(-c3cccc(F)c3)cn2)c1 [MMV688466] | 9 ± 1 | 25 ± 6 | 41 ± 2 | 49 ± 5 | 58 ± 27 | 98 ± 1 | ≥ 40 | 4 ± 1 | 11 ± 4 | 29 ± 2 | 54 ± 8 | 96 ± 3 | 100 | 96 ± 3 | 83 ± 3 | 82 ± 11 | – | – | – | – | % Cruzain Inhibition (Mean ± SEM) 0.01% Triton X-100 (cruzain [2]): 32 ± 5%
COc1ccc(C2=NN(C3CCCCCC3)C(=O)[C@H]3CC=CC[C@@H]23)cc1OCCCCOc1ccc(-c2nn[nH]n2)cc1 [MMV690027] | – | – | 50 ± 5 | 33 ± 2 | – | – | ≥ 40 | – | – | 6 ± 2 | 0 | – | – | – | – | – | – | – | – | – | TbrCatL Inhibition 0’ (TbrCatL; 0’ (no pre-incubation), sheet Screening results): 6.4%; TbrCatL Inhibition 10’ (TbrCatL; 10’ (pre-incubation), sheet Screening results): -1.8%
COc1ccc(C2=NN(C3CCCCCC3)C(=O)C2(C)C)cc1OCCCCOc1ccc(-c2nn[nH]n2)cc1 [MMV690028] | 10 ± 3 | 13 ± 5 | 34 ± 8 | 27 ± 4 | 100 | 100 | ≥ 40 | 18 ± 7 | 27 ± 3 | 49 ± 4 | 23 ± 4 | 100 | 88 ± 3 | 91 ± 7 | 69 ± 14 | – | – | – | – | – | –
COc1ccc(Oc2ccc([C@@H](C)N(C)c3ncc4c(N)nc(N)nc4n3)cc2)cc1 [MMV690102] | – | – | – | – | – | – | – | – | – | – | – | – | – | – | – | – | 0.4 | 12 | -2.5 | 14 | –
C[C@H](c1ccc2c(c1)CCCC2)N(C)c1ncc2c(N)nc(N)nc2n1 [MMV690103] | – | – | – | – | – | – | – | – | – | – | – | – | – | – | – | – | -2.7 | 16 | -18 | -22 | –
CCc1ccc(C(NCc2nc(N)nc(N(C)C)n2)C(C)C)cc1 (stereo not drawn) [MMV1019989] | – | – | – | – | – | – | – | – | – | – | – | – | – | – | – | – | -10 | -7 | -6 | -5 | –
